Reference: ChEMBL document CHEMBL1201862, “PubChem BioAssay data set” (2004)
Active and inactive are the calls of the source.

Columns and labels:
[1] = luciferase reporter signal suppression in cells – H4 neuroglioma cells, luminescence, dose response (AID 1990); assay type: functional, cell-based
[2] = alpha-synuclein stem-loop luciferase translation blockers – H4 neuroglioma cells, luminescence, confirmation (AID 1988); assay type: functional, cell-based
[3] = Luminescence Cell-Based Dose Response HTS to Identify Inhibitors of 5'UTR Stem-Loop Driven Prion Protein mRNA Translation in H4 Neuroglioblastoma Cells. [Related pubchem assays: 1827 (Project Summary), 1813 (Primary HTS)]; assay type: functional
[4] = DRD fibroblast viability loss – cell-based, non-viral oncogenic, luminescence, dose response (AID 1934); assay type: functional; details: Homo sapiens
BJ [5] = assay: BJ-TERT fibroblast viability loss – cell-based, RAS-independent, luminescence, dose response (AID 1933); assay type: functional; details: Homo sapiens
BJ [6] = assay: cells; assay type: functional, cell-based; details: Homo sapiens
BJ [7] = assay: BJ-TERT-LT-ST fibroblast viability loss – cell-based, RAS-independent, luminescence, dose response (AID 1935); assay type: functional; details: Homo sapiens;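 note: BJ fibroblasts immortalized with TERT plus LT and ST oncogenes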
P388/ADR = assay: cells; assay type: functional; details: Mus musculus
SN12K1 = assay: cells; assay type: functional; details: Homo sapiens
P388 = assay: cells; assay type: functional; details: Mus musculus
[8] = target: T1, Calpain-2 catalytic subunit (Sus scrofa, UniProt P43367); assay: m-calpain protease blockers, concentration series – biochemical, fluorogenic peptide substrate, dose response (AID 1420); assay type: functional
T1 sequence (P43367 whole entry): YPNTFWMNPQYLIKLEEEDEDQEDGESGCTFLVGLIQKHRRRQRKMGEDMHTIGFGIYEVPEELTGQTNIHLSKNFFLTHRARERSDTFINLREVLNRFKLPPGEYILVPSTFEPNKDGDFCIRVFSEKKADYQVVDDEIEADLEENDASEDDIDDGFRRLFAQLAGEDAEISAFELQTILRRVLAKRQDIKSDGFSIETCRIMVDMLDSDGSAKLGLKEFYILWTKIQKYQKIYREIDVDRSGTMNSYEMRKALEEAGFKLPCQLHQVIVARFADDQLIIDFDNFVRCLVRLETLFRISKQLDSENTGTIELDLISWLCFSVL

[9] = THP-1 cell cytotoxicity, dose response, cytotoxicity control for non-replicating M. tuberculosis project (AID 489025); assay type: functional
H4 = assay: Luminescence Cell-Based Dose Response HTS to Identify Activators of 5'UTR Stem-Loop Driven Prion Protein mRNA Translation in H4 Neuroglioblastoma Cells. [Related pubchem assays: 1829 (Project Summary), 1814 (Primary HTS)]; assay type: functional; details: Homo sapiens
[10] = Luminescence Cell-Based Dose Confirmation HTS to Identify Activators of 5'UTR Stem-Loop Driven Alpha-Synuclein mRNA Translation in H4 Neuroglioblastoma Cells. [Related pubchem assays: 1829 (Project Summary), 1814 (Primary HTS)]; assay type: functional
cells [11] = assay type: functional
[12] = Luminescence Cell-Based Dose Response HTS to Identify Activators of Luciferase Translation or Activity in H4 […] Cells. [Related pubchem assays: 1829 (Project Summary), 1814 (Primary HTS)]; assay type: functional
Cytochrome P450 3A4 = Cytochrome P450 3A4 (Homo sapiens, UniProt P08684);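 note: CYP3A4 tested as one member of a cytochrome P450 panel screen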
Sequence of Cytochrome P450 3A4 (P08684 whole entry): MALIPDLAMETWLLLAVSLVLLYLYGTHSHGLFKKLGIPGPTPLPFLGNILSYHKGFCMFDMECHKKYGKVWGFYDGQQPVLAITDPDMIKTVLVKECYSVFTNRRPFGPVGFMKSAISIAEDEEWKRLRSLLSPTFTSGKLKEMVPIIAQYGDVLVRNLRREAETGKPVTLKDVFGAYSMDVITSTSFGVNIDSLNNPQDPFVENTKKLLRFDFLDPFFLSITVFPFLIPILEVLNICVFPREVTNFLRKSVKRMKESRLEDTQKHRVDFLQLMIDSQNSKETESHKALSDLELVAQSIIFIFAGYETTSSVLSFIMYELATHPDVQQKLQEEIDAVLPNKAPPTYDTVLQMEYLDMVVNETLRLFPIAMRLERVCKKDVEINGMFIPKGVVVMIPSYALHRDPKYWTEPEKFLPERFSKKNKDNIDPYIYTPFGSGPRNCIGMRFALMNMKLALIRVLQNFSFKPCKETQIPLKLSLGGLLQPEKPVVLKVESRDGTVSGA

Cytochrome P450 2D6 = Cytochrome P450 2D6 (Homo sapiens, UniProt P10635);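 note: CYP2D6 member of a cytochrome P450 panel assay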
Sequence of Cytochrome P450 2D6 (P10635 whole entry): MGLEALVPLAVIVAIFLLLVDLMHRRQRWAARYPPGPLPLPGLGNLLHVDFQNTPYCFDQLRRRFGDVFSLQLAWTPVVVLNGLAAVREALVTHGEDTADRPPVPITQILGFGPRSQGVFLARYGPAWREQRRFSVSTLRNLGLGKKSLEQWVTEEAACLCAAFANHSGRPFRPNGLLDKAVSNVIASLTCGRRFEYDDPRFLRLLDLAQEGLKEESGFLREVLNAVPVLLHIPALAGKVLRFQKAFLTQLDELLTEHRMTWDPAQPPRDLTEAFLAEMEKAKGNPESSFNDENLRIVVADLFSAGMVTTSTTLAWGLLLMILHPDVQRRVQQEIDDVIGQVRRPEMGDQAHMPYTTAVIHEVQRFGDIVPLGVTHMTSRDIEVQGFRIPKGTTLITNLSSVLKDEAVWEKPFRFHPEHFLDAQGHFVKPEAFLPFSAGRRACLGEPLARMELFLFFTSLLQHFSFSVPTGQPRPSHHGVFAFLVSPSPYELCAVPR

Cytochrome P450 1A2 = target: T2, Cytochrome P450 1A2 (Homo sapiens, UniProt P05177);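 note: PubChem cytochrome P450 panel assay, CYP1A2 panel member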
T2 sequence (P05177 whole entry): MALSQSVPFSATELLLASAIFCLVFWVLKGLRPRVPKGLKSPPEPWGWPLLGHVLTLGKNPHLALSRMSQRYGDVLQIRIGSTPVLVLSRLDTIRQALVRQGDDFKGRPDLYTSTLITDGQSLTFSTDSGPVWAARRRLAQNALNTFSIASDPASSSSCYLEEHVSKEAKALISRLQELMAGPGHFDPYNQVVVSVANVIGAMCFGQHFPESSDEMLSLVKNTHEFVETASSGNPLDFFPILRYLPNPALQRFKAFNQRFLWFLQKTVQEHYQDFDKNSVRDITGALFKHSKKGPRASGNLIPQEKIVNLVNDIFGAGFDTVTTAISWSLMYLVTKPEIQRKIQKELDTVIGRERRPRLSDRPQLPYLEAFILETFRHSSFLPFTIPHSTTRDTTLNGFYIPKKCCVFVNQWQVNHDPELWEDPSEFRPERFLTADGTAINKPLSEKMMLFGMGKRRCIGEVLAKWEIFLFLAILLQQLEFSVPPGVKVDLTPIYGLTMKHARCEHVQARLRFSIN

[13] = viability of uninfected HEp-2 cells – cell-based, HTS, cytotoxicity control for RSV inhibitor project, dose response (AID 2410); assay type: functional; details: human respiratory syncytial virus
[14] = target: T3, High affinity choline transporter 1 (Homo sapiens, UniProt Q9GZV3); assay: human choline transporter blockers, potency – cell-based, 5-point CRC, membrane potential dye, dose response (AID 504840); assay type: functional
T3 sequence (Q9GZV3 whole entry): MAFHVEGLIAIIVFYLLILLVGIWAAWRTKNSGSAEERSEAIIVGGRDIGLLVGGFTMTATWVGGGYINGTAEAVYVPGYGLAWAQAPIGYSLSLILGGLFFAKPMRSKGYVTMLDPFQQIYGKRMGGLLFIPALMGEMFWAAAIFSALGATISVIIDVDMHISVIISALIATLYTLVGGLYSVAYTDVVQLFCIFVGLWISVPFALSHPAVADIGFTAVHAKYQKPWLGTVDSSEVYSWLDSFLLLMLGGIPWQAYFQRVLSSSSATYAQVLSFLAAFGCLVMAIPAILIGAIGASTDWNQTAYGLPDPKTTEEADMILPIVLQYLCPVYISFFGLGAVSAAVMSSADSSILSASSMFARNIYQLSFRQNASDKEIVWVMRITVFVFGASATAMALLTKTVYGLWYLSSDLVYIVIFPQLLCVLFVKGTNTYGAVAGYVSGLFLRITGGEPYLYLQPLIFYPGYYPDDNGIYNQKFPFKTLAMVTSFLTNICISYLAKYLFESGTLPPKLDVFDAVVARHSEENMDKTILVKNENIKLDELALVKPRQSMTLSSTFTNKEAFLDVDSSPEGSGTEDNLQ

[15] = target: T4, Nuclear receptor subfamily 0 group B member 1 (Homo sapiens, UniProt P51843); assay type: functional, cell-based;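 note: HEK293T cells transfected with SF-1 and DAX-1 plus StAR promoter luciferase reporter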
T4 sequence (P51843 whole entry): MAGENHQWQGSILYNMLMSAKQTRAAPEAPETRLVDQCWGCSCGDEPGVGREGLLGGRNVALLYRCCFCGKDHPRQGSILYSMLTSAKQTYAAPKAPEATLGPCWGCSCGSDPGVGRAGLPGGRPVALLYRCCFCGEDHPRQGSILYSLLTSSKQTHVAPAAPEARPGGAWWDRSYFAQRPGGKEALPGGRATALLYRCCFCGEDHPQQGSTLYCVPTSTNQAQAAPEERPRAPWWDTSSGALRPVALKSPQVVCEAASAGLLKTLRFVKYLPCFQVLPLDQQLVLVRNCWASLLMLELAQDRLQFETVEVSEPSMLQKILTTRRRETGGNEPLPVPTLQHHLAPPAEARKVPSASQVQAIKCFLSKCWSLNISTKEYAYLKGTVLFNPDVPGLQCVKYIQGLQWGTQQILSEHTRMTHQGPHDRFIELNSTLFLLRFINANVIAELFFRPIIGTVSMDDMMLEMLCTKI

cells [16] = assay type: functional, cell-based
[17] = target: Glyceraldehyde-3-phosphate dehydrogenase (Homo sapiens, UniProt P04406)
Sequence of Glyceraldehyde-3-phosphate dehydrogenase (P04406 whole entry): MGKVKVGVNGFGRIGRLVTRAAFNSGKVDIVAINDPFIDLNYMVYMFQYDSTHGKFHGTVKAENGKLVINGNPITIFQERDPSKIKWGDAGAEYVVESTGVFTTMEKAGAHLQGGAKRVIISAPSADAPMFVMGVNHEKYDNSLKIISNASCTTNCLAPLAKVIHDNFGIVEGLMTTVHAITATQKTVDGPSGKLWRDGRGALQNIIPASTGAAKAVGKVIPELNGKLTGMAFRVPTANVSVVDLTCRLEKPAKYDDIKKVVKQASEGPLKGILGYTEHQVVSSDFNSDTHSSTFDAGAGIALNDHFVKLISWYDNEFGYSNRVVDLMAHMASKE

Cc1ccc(CSc2nc3ccccc3cc2C=O)cc1
EC50 [1]: > 120 µM (not active)
EC50 [2]: 9.33 µM (active)
EC50 [3]: 11.9 µM (active)
EC50 [4]: 1.59 µM (active)
EC50 (BJ [5]): 0.689 µM (active)
EC50 (BJ [6]): 1.87 µM (active)
EC50 (BJ [7]): 0.668 µM (active)

Nc1[nH]cnc2ncnc1-2 [ADENINE]
GI50 (P388/ADR): 79.3 µM (inactive)
GI50 (SN12K1): 213 µM (inactive)
GI50 (P388): 64.9 µM (inactive)

CSc1nc(NC2OCC(O)C(O)C2O)c(N)c(=O)[nH]1 (centres undefined)
GI50 (P388/ADR): > 100 µM (inactive)
GI50 (SN12K1): > 100 µM (inactive)
GI50 (P388): > 100 µM (inactive)

Oc1ccc(Br)cc1/C=N/c1ccc(Cl)cc1
IC50 [8]: 43.8 µM (not active)

CC(=O)NC1=C[C@@H]([C@H]2COC(C)(C)O2)OC1=O
GI50 (P388/ADR): > 100 µM (inactive)
GI50 (SN12K1): > 100 µM (inactive)
GI50 (P388): > 100 µM (inactive)

Cc1nc2ccccc2[nH]c(=O)c1=NNc1ccc([N+](=O)[O-])cc1
IC50 [8]: 12.3 µM (not active)

Cc1cc(C)nc(SC2CC(=O)N(c3ccc(C)c(C)c3)C2=O)n1 (centres undefined)
CC50 [9]: > 40 µM (active)

Nc1ccn([C@@H]2C=C(CO)[C@@H](O)[C@H]2O)c(=O)n1
GI50 (P388/ADR): 0.0619 µM (active)
GI50 (SN12K1): 0.104 µM (active)
GI50 (P388): 0.0752 µM (active)

COc1ccc(NC(=O)c2cnc(SC)nc2)cc1
CC50 [9]: 18.1 µM (active)
EC50 (H4): 16 µM (active)
EC50 [10]: > 120 µM (not active)
IC50 (cells [11]): 18.4 µM (active)
EC50 [12]: 14.8 µM (active)

FC(F)(F)c1ccccc1-c1cc(NCc2ccccc2)ncn1
AC50 (Cytochrome P450 3A4): inconclusive
AC50 (Cytochrome P450 2D6): 39.8 µM (inconclusive)

O=C(c1ccc2c(c1)OCCO2)C1CCN(S(=O)(=O)c2ccccc2F)CC1
AC50 (Cytochrome P450 3A4): inconclusive
AC50 (Cytochrome P450 2D6): 0.0316 µM (inconclusive)
AC50 (Cytochrome P450 1A2): 5.01 µM (inconclusive)
CC50 [13]: > 50 µM (active)

CCOc1ccc(NC(=NCc2ccc3c(c2)OCO3)SC2CC(=O)N(c3ccc(OCC)cc3)C2=O)cc1 (centres undefined)
IC50 [8]: > 50 µM (not active)

CN1CCCC(CC2Oc3ccccc3Sc3ccccc32)C1 (centres undefined)
IC50 [14]: 15.8 µM (active)

Cc1cc(NC(=O)NC(=O)c2ccccc2F)no1
IC50 [15]: > 67.5 µM (inactive)
IC50 (cells [16]): > 67.5 µM (inactive)

CCCc1cc2c(=O)c(-c3ccccn3)c(C)oc2cc1O
IC50 [14]: 12.3 µM (active)

O=C1C(Cl)=C(N2CCN(c3ccccc3)CC2)C(=O)N1c1ccc(Cl)nc1
IC50 [17]: > 50 µM (inconclusive)
